These results are taken from patent US20220339138A1, “METHODS AND COMPOSITIONS FOR TREATMENT OF RETT SYNDROME” (ACADIA PHARMACEUTICALS INC., priority 2019, published 2022).

Entries after “also recorded” stand apart in the source; their conditions may differ. Like-named read-outs stand apart in the source and are kept apart here. Square brackets hold non-standard residues; d marks the D form. Peptide text beside a SMILES is read from it. αMeP = C[C@@]1(C(=O)O)CCCN1

The subject of series [1] is children with Rett syndrome 2 to 10 years of age. The conditions noted are these: Phase 2 trial (O'Leary et al. 2018); cited from earlier work.
The next series deals with MeCP2 mutant mice. The conditions noted are these: MeCP2 mutant mice (Tropea et al. 2009); cited from earlier work.
The next series is described as follows: clinical. The settings on record: human, in vivo. On the procedure: These pharmacokinetic results are in agreement with the data obtained previously in healthy subjects and in adolescent and adult RTT patients.
Therefore, the upper levels of exposure in the 200 mg/kg BID dose level were considered to be effective and thus an appropriate target exposure level. Thus, dosing strategies were developed with the aim of providing a minimal target exposure of 800 μg/mL·h, corresponding approximately to the 90-100% AUC quantile of exposure (AUC0-12) observed in the children/adolescents study for the nominal dose of 200 mg/kg BID. With weight-banding, a greater proportion of subjects is expected to achieve the target drug exposure.

A short description of series [2]: Population pharmacokinetic model from 9 clinical studies. It counts as in vivo, human. The settings on record: final population PK model, population mean. The source says: Data for the population PK model development of trofinetide came from 5 Phase 1 studies and 4 Phase 2 studies, including patients with Rett syndrome and other diseases. A total of 3058 trofinetide concentration records collected in 290 subjects were available for potential use in the analysis. A blend of full-profile and sparse data from 94 healthy volunteers, 93 patients with Rett syndrome (adult and pediatric), 103 patients with other diseases was available for this analysis.
Key steps for the development of the trofinetide population PK model were: 1) exploratory data analysis; 2) base structural model development via application, re-estimation, and refinement of a population PK model using pooled data from 9 clinical studies; 3) evaluation of covariate effects using forward selection; 4) full multivariable model evaluation: 5) backward elimination of covariates; 6) final model refinement; and 7) model evaluation. The continuous covariates evaluated included age, body weight, body mass index (BMI), estimated glomerular filtration rate, total bilirubin, alanine aminotransferase, and aspartate aminotransferase. The only categorical covariate evaluated was a combination of sex and disease state (SEXDS), where: SEXDS=0 for male healthy volunteers, SEXDS=1 for female healthy volunteers, SEXDS=2 for patients with Rett (female only), SEXDS=3 for patients with other disease A (male only), SEXDS=4 for male patients with other disease B, and SEXDS=5 for female patients with other disease B. The covariate analysis used a standard forward selection-backward elimination method to identify statistically significant (α=0.001) predictors of PK variability that also explained a sufficient proportion of interindividual variability (IIV) for the respective PK parameter upon which they were tested (that is, reducing IV by ≥5%). The final PK model was validated using a simulation-based, prediction-corrected visual predictive check (pcVPC) methodology to assess concordance between the model-based simulated data and the observed data.
A total of 2759 trofinetide plasma concentrations in 281 subjects were used in the development of the population PK model. The analysis dataset comprised subjects with a median (range) age of 22 (5 to 64) years and a median (range) body weight of 65.6 (15.1 to 139.6) kg, with 52.8% of the analysis population being male and 47.2% female.
The final population PK model for trofinetide was a 2-compartment model with first-order absorption, linear elimination, and 2 separate exponential error models for healthy volunteers and patients. The model included separate bioavailability terms for oral dosing (relative bioavailability [F1]) and dosing via gastric tube (F1G). Interindividual variability was estimated for first-order absorption (ka), clearance (CL), central volume of distribution (Vc), peripheral volume of distribution (Vp), and intercompartmental clearance (Q) using exponential error models.
A total of 4 covariate-parameter relationships were included in the final population PK model. […] Therefore, the final PK model included body weight as a significant predictor of both CL (as a power function) and Vc (as a power function), and SEXDS as a significant predictor of both CL (as a proportional function) and Vc (as a proportional function).

Series [3] has as its system patients with Rett syndrome. In words: CGI-I exposure-response model. The settings on record: refined population PK and E-R models. More on the design: species or system human. On the procedure: Exposure-response analyses of the CGI-I scores were performed on data from patients with Rett syndrome with available trofinetide exposure estimates, plus placebo patients. All of the patients included in this analysis had at least 1 CGI-I score measured after trofinetide or placebo dosing. Data from 52 adult patients with Rett syndrome and 81 pediatric patients with Rett syndrome were pooled for this analysis.
The endpoints used for E-R efficacy modeling include CGI-I scores from two clinical studies and RSBQ scores from one clinical study. The CGI-I scores were measured on Days 5, 14, 17, and 26 and CGI-I scores were measured on Days 21, 28, 42, and 54. All patients received placebo for the first 14 days, so Day 14 was treated as the “true baseline” for trofinetide treatment. The RSBQ scores were collected on Days 14, 28, 42 and 54.
The overall procedures followed for the development of the E-R models for CGI-I and RSBQ scores were: 1) generation of individual estimates of exposure based on the population PK model; 2) exploratory data analysis; 3) base structural model development incorporating drug exposure effects; 4) evaluation of covariate effects, 5) final model refinement; and 6) model evaluation. Covariates evaluated in the analysis of efficacy endpoints were age, body weight, and BMI. […]

A further series has as its system girls and women with RTT. In words: Phase 2 clinical studies of trofinetide in Rett syndrome (efficacy, tolerability). It counts as in vivo, human. Here is the method: Rett syndrome is a devastating disorder for which there is as yet no treatment beyond symptomatic care resulting in a great unmet medical need. […] Exposure-response analyses of RSBQ scores were performed on data from pediatric patients with Rett syndrome with available trofinetide exposure estimates, plus placebo patients. All of the patients included in this analysis had at least 1 RSBQ score measured after trofinetide or placebo dosing. The RSBQ E-R analysis dataset included only the 81 pediatric patients with Rett syndrome. The endpoints used for E-R efficacy modeling include CGI-I scores from two clinical studies and RSBQ scores from one clinical study. The CGI-I scores were measured on Days 5, 14, 17, and 26 and CGI-I scores were measured on Days 21, 28, 42, and 54. All patients received placebo for the first 14 days, so Day 14 was treated as the “true baseline” for trofinetide treatment. The RSBQ scores were collected on Days 14, 28, 42 and 54.

The conditions of series [4]: cited from earlier work.
The conditions of series [5]: following oral administration; cited from earlier work.
The mark [6] stands for this setting: 50 mg/kg BID, pediatric RTT patients.
Setting [7] is: 100 mg/kg BID, pediatric RTT patients.
Setting [8] is: 200 mg/kg BID, pediatric RTT patients.

For the compound “mecasermin: recombinant human IGF-1, a compound related to trofinetide”, the “CSBS-DP-IT, active treatment group compared to placebo” value in series [1] is recorded as “evidence of benefit”.
As to glycine-proline-glutamate [GPE], the “effect on Rett-like symptoms” value with MeCP2 mutant mice is reported as “reversed Rett-like symptoms”.
A word on the AUC(0-t): it is the area under the concentration-time curve up to a stated or last time point. Lower therefore signals low exposure. For orientation: bioavailability means the share of a dose that reaches the circulation, judged against a reference dose that is usually intravenous. Broadly, the clearance is a measure of how efficiently the substance is removed, as volume per time. Regarding `C[C@@]1(C(=O)N[C@@H](CCC(=O)O)C(=O)O)CCCN1C(=O)CN` [trofinetide, (2S)-2-[[(2S)-1-(2-aminoacetyl)-2-methylpyrrolidine-2-carbonyl]amino]pentanedioic acid] (H-Gly-[αMeP]-Glu-OH), the “effect of body weight on clearance and central volume of distribution” value in the series “clinical” was “significant effect”. In “clinical” (200 mg/kg), this compound yielded an area under the curve AUC(0-t) of at least 790 µg·h/mL. Moreover, the bioavailability in series [2] (both sexes, human, plasma, other: gastric tube, read-out: F1G: Gastric Tube Bioavailability) turned out to be 84.7%. For the same compound, the bioavailability in series [2] (both sexes, human, plasma, po, read-out: F1: Oral Bioavailability) stood at 77%. Further, in series [2] (both sexes, human, plasma, read-out: CL: Central Clearance (converted)), the clearance was 192 mL/min. In addition, in series [2], the “Q: Distribution Clearance” value was 1.02 L/h, the “Vc: Central Volume” value is reported as 22.2 L, the “Vc: Exponent of (WTKG/65) for Vc” value is 0.770 and the “Vc: Proportional Shift in Vc for Rett = 1” value is reported as −0.562. Moreover, in series [2], the “Vc: Proportional Shift in Vc for disease B = 1” value is reported as −0.374, the “Vp: Peripheral Volume” value is given as 53.0 L and the “ka: First-Order Absorption Rate Constant” value worked out at 0.195 h⁻¹. The “association of higher trofinetide exposure with improvement in Rett syndrome (CGI-I and RSBQ scores) compared to placebo” value in series [3] is given as “greater improvement”. In addition, in the series on girls and women with RTT (200 mg/kg BID, Phase 2), the “clinical efficacy versus placebo” value is listed as “evidence of clinical efficacy; also recorded: benefit compared to placebo”. In addition, the “median percent change in RSBQ scores from baseline” value in the series with girls and women with RTT (200 mg/kg twice daily (BID), over 54 days, pediatric patients with Rett syndrome) was −14.4%. Further, the “PK/PD relationship (exposure versus RSBQ, RTT-DSC, CGI-I)” value with girls and women with RTT (exploratory analyses, Phase 2) is reported as “positive PK/PD relationship”. Moreover, the tolerability result with girls and women with RTT (two studies in girls and women with RTT) is reported as “well tolerated”. For the same compound, in series [4] (setting [6]), the “median AUC(0-12ss)” value was 139.4 µg·h/mL and the “median Cmax” value is 17.7 µg/mL. Besides, in series [4] (setting [7]), the “median AUC(0-12ss)” value was 338.6 µg·h/mL and the “median Cmax” value was 52.6 µg/mL. Moreover, in series [4] (setting [8]), the “median AUC(0-12ss)” value is 505.1 µg·h/mL and the “median Cmax” value is 82.2 µg/mL. The “accumulation, metabolic inhibition, or induction during treatment” value in series [4] (Phase 2 studies) is “no accumulation, metabolic inhibition, or induction”. Moreover, the “pharmacokinetics across the dose range tested” value in series [4] (pediatric RTT patients) is on record as “linear pharmacokinetics”. Further, the blood-brain barrier passage entry in series [5] was “crosses the blood-brain barrier”.
